Assay results as given in patent US20250136617A1 (The Regents of the University of Colorado, A Body Corporate, priority 2022, published 2025).
“Also recorded” adds a separate entry of the source. Read-outs that look alike come from different tables or passages of the source.

How the values were obtained:
Assay type in all cases: cell-based
CXCR4 [1] = biological target: T1, CXCR4 (Homo sapiens, UniProt P61073); experiment: cAMP signaling assay, oxazole scaffold (forskolin-induced adenylate cyclase, CHO-K1 CXCR4 cells); parameters: host or cells: CHO-K1; conditions: listed as UCUF-728
T1 sequence (P61073 whole entry): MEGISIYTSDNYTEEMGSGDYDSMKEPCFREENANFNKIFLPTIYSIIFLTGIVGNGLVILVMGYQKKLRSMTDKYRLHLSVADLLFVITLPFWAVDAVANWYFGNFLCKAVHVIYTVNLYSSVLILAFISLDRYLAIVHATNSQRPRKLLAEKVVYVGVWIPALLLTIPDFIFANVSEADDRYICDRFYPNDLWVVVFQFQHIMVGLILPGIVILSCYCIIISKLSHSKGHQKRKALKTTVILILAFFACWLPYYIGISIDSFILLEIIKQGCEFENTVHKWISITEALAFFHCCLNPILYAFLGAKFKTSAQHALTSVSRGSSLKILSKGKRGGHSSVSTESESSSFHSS
Description: The CXCR4 receptor is a G-protein coupled receptor (GPCR) coupled to the Gi class, whose primary role is inhibition of adenylate cyclase. The ability of UCUF-728 to induce Gi-mediated cAMP-inhibitory cellular response was tested.
Forskolin at final concentration of […] was added to all wells using the TECAN dispenser. […] PathHunter CHO-K1 CXCR4 cells (DiscoverX, Fremont, CA) were added to compounds at 3,000 cells/well, centrifuged at 1000 rpm for 30 sec and incubated for 30 min at room temperature. DMSO (Sigma Aldrich, St. Louis, MO) was normalization to 0.5%. 5 μL of 4× Eu-cAMP tracer working solution was added to all wells followed by addition of 5 μL of 4× Ulight-anti-cAMP working solution to all wells. Plates were centrifuged at 1000 rpm for 1 min and incubated for 1 hr at room temperature then read using CLARIOstar Plus (BMG LABTECH Inc., Cary, NC) Lance CAMP protocol.

CXCR4 [2] = biological target: T1, CXCR4; experiment: Adenylate cyclase (cAMP inhibition) assay, thiadiazine scaffold, CHO-CXCR4-cAMP cells; parameters: host or cells: CHO-K1
Description: Tango™ CXCR4-bla U2OS Cells (Invitrogen; K1779) were used for (β-arrestin recruitment assays and maintained as a monolayer culture in McCoy's 5a (Corning; 10-050-CV) supplemented with 10% dialyzed Fetal Bovine Serum (Gibco; 26400-044), 0.1 mM MEM Non-essential amino acids solution, 25 mM HEPES solution (Corning; 25-060-CI), 1 mM Sodium Pyruvate (Gibco; 11360-070), 200 μg/mL Zeocin selection reagent (Gibco; R25001), 50 μg/mL Hygromycin B (Gibco, 10687010), and 100 μg/mL Geneticin (G418 Sulfate) (Gibco, 10131035). U2OS cells were subcultured twice weekly by 0.05% Trypsin-EDTA treatment (Corning; 25-051-CI) and passaged to continue exponential growth phase for cell signaling assays. All cell cultures were maintained in cell culture incubators at 37° C. with 5% CO2. CHO-K1 CXCR4 cells (DiscoverX, Fremont, CA, USA) were used for cAMP inhibition assays and maintained as a monolayer culture in DMEM/F12 (Corning; 10-091-CV) supplemented with 10% Fetal Bovine Serum (Corning; 35-011-CV) and 100IU penicillin, […] streptomycin sulfate (Corning; 30-002-CI) and […] G418 (Gibco; 101310350. Cells were subculture 2 times weekly by o.o5% Trypsin-EDTA treatment (Corning; 25-051-CI) and passaged to continue exponential growth phase for cell signaling assays. All cell cultures were maintained in cell culture incubators at 37° C. with 5% CO2.CEM-CCRF cells (ATCC CCL-119) were used in both the migration and calcium flux assays and were cultured in growth media consisting of RPMI 1640 (Corning; 10-040-CV) supplemented with 10% Fetal Bovine Serum (Corning; 35-011-CV), and 100 IU penicillin, […] streptomycin sulfate (Corning; 30-002-CI). […] Cells were harvested for use in migration and calcium flux assays at 2.0×10^6 cells/mL to 2.5×10^6 cells/mL and resuspended in assay media to desired density for respective experiments.
Compounds and DMSO normalization to 0.5% were dispensed using the TECAN D300e digital dispenser into the wells of a 384-well white wall clear-bottom assay plate (Griener 781983). […] This cell suspension was dispensed at 20 μL per well into the assay plate and allowed to incubate overnight for approximately 18 hrs with compounds in cell culture incubator at 37° C. with 5% CO2. Following incubation, DMEM/F12 media was gently removed, then the Lance Ultra cAMP Kit (Perkin Elmer; TRF0263) was performed according to the supplier guidelines. […] Time-resolved fluorescence was measured on the BMG LABTECH CLARIOstar Plus (BMG LABTECH Inc., Cary, NC) using the Lance Ultra cAMP kit guidelines for excitation and emission. […]

miR-146a = miR-146a expression in murine fibroblasts; conditions: 24 h; listed as UCUF-965
Description: (§1) The expression of specific micro-RNA levels reported to be crucial in the wound-healing process were measured in order to validate and correlate the in vitro activity of UCUF-965 as a selective CXCR4 receptor modulator to micro-RNA expression. Murine diabetic and non-diabetic fibroblasts were cultured with increasing concentrations of the compound. The cells were incubated for 24 h and then total cellular RNA was isolated to examine the ability of the compound to correct the abnormal expression levels of miR-15b, miR-29a, and miR-146a. The effect of UCUF-965 on expression of miR-15b, which inhibits angiogenesis and wound repair was examined.

miR-15b = miR-15b expression in murine diabetic and non-diabetic fibroblasts; conditions: 24 h, response even at 0.1 μM; listed as UCUF-965
Description: (§2) Total RNA was extracted with TRIzol reagent (Invitrogen, Carlsbad, CA, USA) according to the manufacturer's established protocol. RNA was converted into cDNA using the SuperScript First-Strand Synthesis System (Invitrogen, Life Technologies). Primers and probes for mouse miR-15b and miR-29a were acquired from Applied Biosystems TaqMan gene expression assay (Applied Biosystems, Foster City, CA). Quantitative PCR was performed on a BIO-RAD CFX96 according to the manufacturer's instructions. Quantitative values of genes of interest are normalized based on U6. Samples (n=5 per group) were amplified in triplicate and results were averaged for each individual sample. The ΔΔCT method was used to calculate relative gene expression. Results are reported as mean±SD.
as §1, with “The effect of UCUF-965 on expression of miR-15b, which inhibits angiogenesis and wound repair was examined.” left out

miR-29a = miR-29a expression in murine fibroblasts; conditions: 24 h; listed as UCUF-965
Description: as §2
as §1, with “The effect of UCUF-965 on expression of miR-15b, which inhibits angiogenesis and wound repair was examined.” left out

| Compound | cAMP signaling / forskolin-induced adenylate cyclase (CXCR4 [1]) | cAMP inhibition activity (CXCR4 [2]; listed as UCUF-965) | cAMP log EC50 (CXCR4 [2]; log value, n=3) [M] | Emax (CXCR4 [2]; read-out: cAMP maximal response (Emax) of SDF-1α potentiated by, pretreatment with 0.1 μM UCUF-965) [%] | Emax (CXCR4 [2]; read-out: cAMP maximal response (Emax) of SDF-1α potentiated by, pretreatment with 1 μM UCUF-965) [%] | Emax (CXCR4 [2]; read-out: cAMP maximal response (Emax) of SDF-1α potentiated by, pretreatment with 5 μM UCUF-965) [%] | miR-146a expression (miR-146a) | miR-15b expression (miR-15b) | miR-29a expression (miR-29a) |
| --- | --- | --- | --- | --- | --- | --- | --- | --- | --- |
| COc1ccc(OC)c(NS(=O)(=O)c2ccc(-c3cnc(C4CC4)o3)cc2)c1 [Oxazole Entry 19, 4-(2-Cyclopropyloxazol-5-yl)-N-(2,5-dimethoxyphenyl)benzenesulfonamide] | did not inhibit forskolin-induced adenylate cyclase; also recorded: does not show dose-dependent activity |  |  |  |  |  |  |  |  |
| CCOc1ccccc1-c1nnc2n1N=C(c1ccc(N3CCCC3)cc1)CS2 [Thiadiazine Entry 23, 3-(2-ethoxyphenyl)-6-(4-(pyrrolidin-1-yl)phenyl)-7H-[1,2,4]triazolo[3,4-b][1,3,4]thiadiazine] |  | dose-dependent partial agonist response; also recorded: dose-dependent partial inhibition of forskolin-stimulated cAMP production; also recorded: did not inhibit the action of SDF-1α; also recorded: doubling the Emax | −7.3±0.2 | 110 | 201 | 209 | increase of miR-146a levels; also recorded: induction of miR146a | decreased the expression of miR-15b; also recorded: suppression of miR15b | significant decrease of miR-29a levels; also recorded: suppression of miR15b and miR29a |
